PMC11822212, “High-throughput screening identifies Aurora kinase B as a critical therapeutic target for Merkel cell carcinoma” (Nature Communications, 2025)
Counter-ions that a name gives are not always drawn.

What was measured:
[1] = system: six MCC cell lines and four control cell lines; test: qHTS cell viability, all 10 cell lines screened; format: cell-based
[2] = system: VN-MCC cell lines (MCC13, MCC26, UISO); test: qHTS cell viability, VN-MCC cell lines as a group (mean AUC, VN.MCC.avg); format: cell-based, human
[3] = system: VP-MCC cell lines (WAGA, MKL-1, MKL-2); test: qHTS cell viability, VP-MCC cell lines as a group (mean AUC, VP.MCC.avg); format: cell-based, human
[4] = system: MCC cell lines (WAGA, MKL-1, MKL-2, MCC13, MCC26, UISO); test: qHTS cell viability, all six MCC cell lines as a group (mean AUC, MCC.avg); format: cell-based, human
MKL-1 cells (VP-MCC) = test: qHTS cell viability (CellTiter-Glo, 72 h; primary and follow-up small molecule screen); format: cell-based, human; conditions: for MKL1_AUC: area under the dose-response curve, MKL-1 cells, AUC<450 = reduced viability
HACAT cells = test: qHTS cell viability (CellTiter-Glo, 72 h; primary screen), control cell line; format: cell-based, human; conditions: for HACAT_AUC: area under the dose-response curve, HACAT control cells, AUC<450 = reduced viability
WAGA cells (VP-MCC) = test: qHTS cell viability (CellTiter-Glo, 72 h; primary and follow-up small molecule screen); format: cell-based, human; conditions: for WAGA_AUC: area under the dose-response curve, WAGA cells, AUC<450 = reduced viability
MCC13 cells (VN-MCC) = test: as above; format: cell-based, human; conditions: for MCC13_AUC: area under the dose-response curve, MCC13 cells, AUC<450 = reduced viability
MCC26 cells (VN-MCC) = test: as above; format: cell-based, human; conditions: for MCC26_AUC: area under the dose-response curve, MCC26 cells, AUC<450 = reduced viability
HEK293T cells = test: qHTS cell viability (CellTiter-Glo, 72 h; primary screen), control cell line; format: cell-based, human; conditions: for HEK293T_AUC: area under the dose-response curve, HEK293T control cells, AUC<450 = reduced viability
UISO cells (VN-MCC) = test: qHTS cell viability (CellTiter-Glo, 72 h; primary and follow-up small molecule screen); format: cell-based, human; conditions: for UISO_AUC: area under the dose-response curve, UISO cells, AUC<450 = reduced viability
MKL-2 cells (VP-MCC) = test: as above; format: cell-based, human; conditions: for MKL2_AUC: area under the dose-response curve, MKL-2 cells, AUC<450 = reduced viability
CRL-7250 cells = test: qHTS cell viability (CellTiter-Glo, 72 h; primary screen), control cell line; format: cell-based; conditions: for CRL7250_AUC: area under the dose-response curve, CRL7250 control cells, AUC<450 = reduced viability
NIH-3T3 cells = test: as above; format: cell-based, mouse; conditions: for NIH3T3_AUC: area under the dose-response curve, NIH3T3 control cells, AUC<450 = reduced viability
[5] = primary high-throughput screen, viability 72 h, n = 1

SMILES	Control-MCC [1]	Control-VN-MCC [2]	Control-VP-MCC [3]	MKL1_AUC (MKL-1 cells (VP-MCC))	HACAT_AUC (HACAT cells)	WAGA_AUC (WAGA cells (VP-MCC))	MCC13_AUC (MCC13 cells (VN-MCC))	MCC26_AUC (MCC26 cells (VN-MCC))	HEK293T_AUC (HEK293T cells)	UISO_AUC (UISO cells (VN-MCC))	MKL2_AUC (MKL-2 cells (VP-MCC))	CRL7250_AUC (CRL-7250 cells)	NIH3T3_AUC (NIH-3T3 cells)	further results
CN1CC[C@]23c4c5ccc(O)c4O[C@H]2[C@@H](O)C=C[C@H]3[C@H]1C5 [Morphine sulfate pentahydrate]	52.6314	52.1622	53.1007											Control-MCC [4]: 52.6315
CCC(=O)C(CC(C)N(C)C)(c1ccccc1)c1ccccc1 (stereo not shown) [Methadone hydrochloride]	49.7335	44.0199	55.4471											
COc1cc2nc(N3CCN(C(=O)C4CCCO4)CC3)nc(N)c2cc1OC (stereo not shown) [Terazosin hydrochloride]	50.8672	50.4982	51.2361											
CCCCCCCCCCCC1=C(O)C(=O)C=C(O)C1=O [Embelin]				418.887	451.959	416.987	489.799	492.758	470.759	474.744	427.936	461.338	468.399	Area under the dose-response curve (AUC) MKL-1 Replicate 1 (MKL-1 cells (VP-MCC); follow-up screen, MKL-1, replicate 1): 561.5; Area under the dose-response curve (AUC) MKL-1 Replicate 2 (MKL-1 cells (VP-MCC); follow-up screen, MKL-1, replicate 2): 475.0; Area under the dose-response curve (AUC) MKL-1 Replicate 3 (MKL-1 cells (VP-MCC); follow-up screen, MKL-1, replicate 3): 443.8; Area under the dose-response curve (AUC) WAGA Replicate 1 (WAGA cells (VP-MCC); follow-up screen, WAGA, replicate 1): 543.3; Area under the dose-response curve (AUC) WAGA Replicate 2 (WAGA cells (VP-MCC); follow-up screen, WAGA, replicate 2): 384.9; Area under the dose-response curve (AUC) WAGA Replicate 3 (WAGA cells (VP-MCC); follow-up screen, WAGA, replicate 3): 441.0; Area under the dose-response curve (AUC) MCC13 Replicate 1 (MCC13 cells (VN-MCC); follow-up screen, MCC13, replicate 1): 496.2; Area under the dose-response curve (AUC) MCC13 Replicate 2 (MCC13 cells (VN-MCC); follow-up screen, MCC13, replicate 2): 470.6; Area under the dose-response curve (AUC) MCC13 Replicate 3 (MCC13 cells (VN-MCC); follow-up screen, MCC13, replicate 3): 448.5; Area under the dose-response curve (AUC) MCC26 Replicate 1 (MCC26 cells (VN-MCC); follow-up screen, MCC26, replicate 1): 439.2; Area under the dose-response curve (AUC) MCC26 Replicate 2 (MCC26 cells (VN-MCC); follow-up screen, MCC26, replicate 2): 416.6; Area under the dose-response curve (AUC) MCC26 Replicate 3 (MCC26 cells (VN-MCC); follow-up screen, MCC26, replicate 3): 455.7; Area under the dose-response curve (AUC) UISO Replicate 1 (UISO cells (VN-MCC); follow-up screen, UISO, replicate 1): 471.2; Area under the dose-response curve (AUC) UISO Replicate 2 (UISO cells (VN-MCC); follow-up screen, UISO, replicate 2): 418.0; Area under the dose-response curve (AUC) UISO Replicate 3 (UISO cells (VN-MCC); follow-up screen, UISO, replicate 3): 438.8; Area under the dose-response curve (AUC) MKL-2 Replicate 1 (MKL-2 cells (VP-MCC); follow-up screen, MKL-2, replicate 1): 476.0; Area under the dose-response curve (AUC) MKL-2 Replicate 2 (MKL-2 cells (VP-MCC); follow-up screen, MKL-2, replicate 2): 454.8; Area under the dose-response curve (AUC) MKL-2 Replicate 3 (MKL-2 cells (VP-MCC); follow-up screen, MKL-2, replicate 3): 454.5
C[N+]1(C)[C@@H]2C[C@@H](OC(=O)[C@H](CO)c3ccccc3)C[C@H]1[C@@H]1O[C@@H]12 [Scopolamine methylbromide, reference compound]														Area under the dose-response curve (AUC) MKL-1 (MKL-1 cells (VP-MCC); [5]): 484.0; Area under the dose-response curve (AUC) HACAT (HACAT cells; [5]): 476.9; Area under the dose-response curve (AUC) WAGA (WAGA cells (VP-MCC); [5]): 491.2; Area under the dose-response curve (AUC) MCC13 (MCC13 cells (VN-MCC); [5]): 481.8; Area under the dose-response curve (AUC) MCC26 (MCC26 cells (VN-MCC); [5]): 475.2; Area under the dose-response curve (AUC) HEK293T (HEK293T cells; [5]): 479.5; Area under the dose-response curve (AUC) UISO (UISO cells (VN-MCC); [5]): 492.6; Area under the dose-response curve (AUC) MKL-2 (MKL-2 cells (VP-MCC); [5]): 496.7; Area under the dose-response curve (AUC) CRL7250 (CRL-7250 cells; [5]): 474.6; Area under the dose-response curve (AUC) NIH3T3 (NIH-3T3 cells; [5]): 468.1
CC(C)(C)NCC(O)c1cc(O)cc(O)c1.CC(C)(C)NCC(O)c1cc(O)cc(O)c1.O=S(=O)(O)O (stereo not shown) [Terbutaline hemisulfate]				438.666	496.73	449.356	446.456	430.481	465.552	427.113	440.746	479.05	463.76	
